What was measured:
[1] = system: DMBA-induced mammary carcinoma of the rat; assay: DMBA-induced breast cancer model in rat (therapy experiment/dose-response study); format: in vivo, rat (female Sprague-Dawley)
Description: Immature female Sprague-Dawley rats (49-51 days old; 10 animals/group) were used in this study. Mammary tumors were induced by a single oral administration of 10 mg 7,12-dimethylbenz[a]anthracene (DMBA, Serva/Heidelberg). Rats with at least one established tumor with a size of more than 150 mm^2 were treated for 4 weeks by: 1) solvent control, 2) ovariectomy at treatment start, 3) antiprogestin (I), 0.5 mg/kg s.c., 4) antiprogestin (I), 2 mg/kg s.c., 5) antiprogestin (I), 5 mg/kg s.c., 6) antiprogestin (I), 10 mg/kg s.c., and 7) onapristone, 5 mg/kg, s.c., daily. As a parameter for growth inhibition the change of tumor area (in % with respect to initial tumor size) determined by weekly caliper measurements was used. For statistical analysis of intergroup differences of mean values the Kruskal-Wallis-test was used.

[2] = system: NMU-induced mammary carcinoma of the rat; assay: NMU-induced breast cancer model in rat (therapy experiment); format: in vivo, rat (female Sprague-Dawley); settings: 4 weeks
Description: Tumors were induced by a single intravenous injection of NMU (nitrosomethylurea, 50 mg/kg) in female Sprague-Dawley rats (obtained from Tierzucht Schönwalde, age 50-55 days). Starting 10 days later, rats with at least one established tumor were treated for 4 weeks by: 1) solvent control, 2) ovariectomy at treatment start, 3) antiprogestin (I), 1.0 mg/kg/day, 4) antiprogestin (I), 0.5 mg/kg/day and 5) onapristone, 5 mg/kg/day. As a parameter for growth inhibition the change of tumor area (in % of initial tumor size) determined by weekly caliper measurements was used. For statistical analysis of intergroup differences of mean values the Kruskal-Wallis-test was used.

[3] = system: DMBA-induced mammary carcinoma of the rat; assay: DMBA-induced breast cancer model in rat (prevention experiment); format: in vivo, rat (female Sprague-Dawley); settings: 6 days/week, start 20 days after DMBA, end of experiment
Description: Immature female Sprague-Dawley rats (49-51 days old; 10 animals/group) were used in this study. The carcinogen 7,12-dimethylbenz[a]anthracene (DMBA) was given as a single oral administration (10 mg). Treatment was started 20 days later as followed: 1) solvent control, 2) ovariectomy at treatment start, 3) tamoxifen, 1 mg/kg s.c., 4) antiprogestin (I), 3 mg/kg, s.c., 6 days/week. Rats were examined weekly for breast tumors by palpation. As a parameter for the prophylactic effect the tumor incidence (number of animals/group with tumors in %) was determined. For a further description and evaluation of DMBA and NMU prevention models, see R. G. Metha, European Journal of Cancer 36 (2000), pp. 1275-1282.

[4] = system: NMU-induced mammary carcinoma of the rat; assay: NMU-induced breast cancer model in rat (prevention experiment); format: in vivo, rat (female Sprague-Dawley); settings: 3 mg/kg s.c., 6 days/week, start 10 days after NMU; end of experiment, after 27 weeks
Description: Tumors were induced by a single intravenous injection of NMU (nitrosomethylurea, 50 mg/kg) in female Sprague-Dawley rats (obtained from Tierzucht Schonwalde, age 50-55 days). Treatment was started 10 days later as followed: 1) solvent control, 2) ovariectomy at treatment start, 3) tamoxifen, 3 mg/kg s.c., 4) antiprogestin (I), 3 mg/kg, s.c., 5) letrozole, 3 mg/kg s.c., 6) raloxifen, 3 mg/kg s.c., 6 days/week. Rats were examined weekly for breast tumors by palpation. As a parameter for the prophylactic effect the tumor incidence (number of animals/group with tumors in %) was determined. For a further description and evaluation of DMBA and NMU prevention models, see R. G. Metha, European Journal of Cancer 36 (2000), pp. 1275-1282.

T47D breast cancer cells = assay: T47D human xenograft (therapy experiment); format: in vivo, human xenograft in Fox Chase scid mice; settings: 10 mg/kg s.c.; scid mice with estradiol pellets
Description: (§1) Female Fox Chase scid mice (M&B) were supplemented with estradiol pellets (Innovative Research of America). T47D breast cancer cells, obtained from cell culture and suspended in matrigel, were implanted s.c. in the inguinal region of the mice. Treatment was started when the tumors were approximately 25 mm^2 in size. Treatment was continued until progression of the tumors. Experimental groups were: 1) control (vehicle), 2) ovariectomy, 3) antiprogestin (I), 10 mg/kg s.c.Tumor area was determined by caliper measurements. The Kruskal Wallis test was used for statistical analysis of intergroup differences of mean values.

MCF7 breast cancer cells = assay: MCF7 human xenograft (therapy experiment); format: in vivo, human xenograft in Fox Chase scid mice; settings: 10 mg/kg s.c.; scid mice with estradiol pellets
Description: as §1, with “MCF7” for “T47D”, “s.c. Tumor” for “s.c.Tumor”

[5] = Further endocrine side effects (general statement)
[6] = Bioavailability (general statement); format: in vivo; settings: oral administration

**Q.** For CN(C)c1ccc([C@H]2C[C@]3(C)[C@@H](CC[C@]3(O)CCCO)[C@@H]3CCC4=CC(=O)CCC4=C32)cc1 [Onapristone, onapristone, reference compound], which “tumor growth inhibition relative to antiprogestin (I)” value ([1]; 5 mg/kg s.c. daily, 4 weeks) is on record?
**A.** distinctly less effective than antiprogestin (I) at comparable doses

**Q.** And the “tumor growth inhibition relative to antiprogestin (I) at 0.5 mg/kg” value ([2]; 5 mg/kg/day)?
**A.** distinctly less effective than antiprogestin (I)

**Q.** For CC(=O)c1ccc([C@H]2C[C@@]3(C)[C@@H](CC[C@@]3(O)C(F)(F)C(F)(F)F)[C@@H]3CCC4=CC(=O)CCC4=C32)cc1 [antiprogestin (I), 11β-(4-acetylphenyl)-17β-hydroxy-17α-(1,1,2,2,2-pentafluoroethyl)-estra-4,9-dien-3-one], which “tumor incidence (number of animals/group with tumors in %)” value ([3]; 3 mg/kg s.c., after 22 weeks) is on record?
**A.** 10%

**Q.** And the “tumor growth (change of tumor area) compared with the control” value ([1]; 0.5 mg/kg s.c. daily, 4 weeks)?
**A.** did not significantly prevent the tumor from growing

**Q.** What about the “rats with complete tumor regression” value ([1]; 2 mg/kg s.c. daily, 4 weeks) of the same compound?
**A.** 50%

**Q.** What about the “tumor growth (change of tumor area), dose-response” value ([1]; 2 mg/kg s.c. daily, 4 weeks) of the same compound?
**A.** maximal growth inhibition

**Q.** And the “tumor growth (change of tumor area), dose-response” value ([1]; 10 mg/kg s.c. daily, 4 weeks (highest dose))?
**A.** comparable to that of 2 mg/kg

**Q.** And the “tumor growth (change of tumor area) compared with the control” value ([1]; doses of or above 2 mg/kg s.c. daily, 4 weeks)?
**A.** significant inhibition of tumor growth

**Q.** And the “tumor incidence (number of animals/group with tumors in %)” value [4]?
**A.** 10%

**Q.** And the “tumor growth (change of tumor area) compared with the control” value ([2]; 0.5 mg/kg/day)?
**A.** significant inhibition of tumor growth

**Q.** What about the “tumor growth (change of tumor area) compared with the control” value ([2]; 1.0 mg/kg/day) of the same compound?
**A.** significant inhibition of tumor growth

**Q.** And the “tumor growth (tumor area)” value (T47D breast cancer cells)?
**A.** inhibition of tumor growth, almost comparable to the effect of conventional estrogen deprivation therapy (ovariectomy)

**Q.** What about the “tumor growth (tumor area)” value (MCF7 breast cancer cells) of the same compound?
**A.** inhibition of tumor growth, almost comparable to the effect of conventional estrogen deprivation therapy (ovariectomy)

**Q.** And the “further endocrine side effects, e.g. androgen, estrogen or antiglucocorticoid activity” value [5]?
**A.** only very weak, if present at all

**Q.** And the bioavailability [6]?
**A.** high

**Q.** With CC/C(=C(\c1ccccc1)c1ccc(OCCN(C)C)cc1)c1ccccc1 [tamoxifen, reference compound] as the compound, how does the “tumor incidence (number of animals/group with tumors in %)” value ([3]; 1 mg/kg s.c.) read?
**A.** 60%

Source: patent US7378406B2, “Use of antiprogestins for prophylaxis and treatment of hormone-dependent diseases” (Schering AG, priority 2000, dated 2008)
